Measured values published in publication PMC10043345, “Discovery of BAR502, as potent steroidal antagonist of leukemia inhibitory factor receptor for the treatment of pancreatic adenocarcinoma” (Frontiers in Oncology, 2023).
Entries after “also recorded” stand apart in the source; their conditions may differ.

Assays:
[1] = molecular target: T1, LIF/LIFR complex (Homo sapiens, UniProt P42702); assay: Alpha Screen inhibition of LIFR/LIF binding (cell-free); conditions: for effect on LIF/LIFR complex formation (LIFR antagonism), in words: cell-free Alpha Screen; for IC50: cell-free, LIFR 4.5 nM, biotinylated LIF 9 nM, read-out: LIFR IC50 AlphaScreen (inhibition of LIFR/LIF binding)
T1 construct: purchased Sino Biological (LIFR); R&D Systems (LIF)
T1 sequence (P42702 45-833 limits assumed): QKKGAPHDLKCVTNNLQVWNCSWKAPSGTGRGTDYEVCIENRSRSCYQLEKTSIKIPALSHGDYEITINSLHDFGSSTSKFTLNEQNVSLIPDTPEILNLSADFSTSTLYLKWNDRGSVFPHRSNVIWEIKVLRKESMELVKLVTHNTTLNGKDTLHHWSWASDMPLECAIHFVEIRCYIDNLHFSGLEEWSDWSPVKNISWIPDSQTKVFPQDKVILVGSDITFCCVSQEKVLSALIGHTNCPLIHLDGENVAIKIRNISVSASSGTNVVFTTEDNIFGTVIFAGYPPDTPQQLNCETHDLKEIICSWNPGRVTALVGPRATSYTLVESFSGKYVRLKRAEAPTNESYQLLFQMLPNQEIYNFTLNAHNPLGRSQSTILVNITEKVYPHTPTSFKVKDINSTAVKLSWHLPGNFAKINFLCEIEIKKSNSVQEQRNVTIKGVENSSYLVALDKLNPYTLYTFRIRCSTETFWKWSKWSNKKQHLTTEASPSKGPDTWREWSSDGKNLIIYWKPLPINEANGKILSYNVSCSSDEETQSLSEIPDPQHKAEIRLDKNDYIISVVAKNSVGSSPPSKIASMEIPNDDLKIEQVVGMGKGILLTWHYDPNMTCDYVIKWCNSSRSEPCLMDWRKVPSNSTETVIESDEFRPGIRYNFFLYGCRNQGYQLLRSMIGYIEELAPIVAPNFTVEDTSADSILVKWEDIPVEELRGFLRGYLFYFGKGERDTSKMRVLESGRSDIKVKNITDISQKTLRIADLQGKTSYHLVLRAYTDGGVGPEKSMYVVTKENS
Description: Recombinant human LIFR (His Tag) and biotinylated recombinant human LIF were purchased from Sino Biologicals (Sino Biological Europe GmbH, Dusseldorf, Germany) and R&D Systems (Abingdon, UK), respectively, and both were reconstituted as required by the manufacturer. […] The assay was carried out in white, low-volume, 384-well AlphaPlates (PerkinElmer, Waltham, MA, USA) using a final volume of 25 µL and an assay buffer containing 25 mM Hepes (pH 7.4), 100 mM NaCl, and 0.005% Kathon. The concentration of DMSO in each well was maintained at 5%. […] Then, LIF was added (biotinylated, final concentration 9 nM), and the samples were incubated for 15 min prior to adding His-Tag acceptor beads (final concentration 20 ng/µL) for 30 min. Then, streptavidin donor beads were added (final concentration 20 ng/µL), and the plate was incubated in the dark for 2 h and then read in an EnSpire Alpha multimode plate reader (PerkinElmer, Waltham, MA, USA).

[2] = tested on: MIA PaCa-2 cells; assay: Scratch wound healing assay; assay type: cell-based, human; conditions: LIF 10 ng/mL alone; 0, 24, 48 h
Description: MIA PaCa-2 cells were seeded in DMEM complete medium at […] cells/well into 24-well plate and used at 70-80% confluence rate. The assay was performed as previously described ([20]), particularly on the day 1, the cell monolayers were gently scraped vertically with a new 0.2 mL pipette tip across the centre of the well. After scratching, the well was gently washed twice with PBS (Euroclone, Milan, Italy) to remove the detached cells and cell debris and finally fresh medium containing LIF (10 ng/mL) alone or in combination with BAR502 (10 µM) or EC359 (25 nM) was added into each well. Immediately after scratch creation, the 24-plate was placed under a phase-contrast microscope and the first image of the scratch acquired (T0) with using a OPTIKAM Pro Cool 5 – 4083.CL5 camera. Cells were grown for additional 48 h and images taken at 24h (T1) and 48 h (T2). The gap distance between scarps borders was quantified by assessing that area between the two margins of the scratches. All experiments were performed in triplicate.

Row | Molecule | effect on LIF/LIFR complex formation (LIFR antagonism), in words [1] | IC50 [1] | reduction of the scratch area (wound closure) [2]
1 | C[C@H](CCC(=O)O)[C@H]1CC[C@H]2[C@@H]3[C@H](O)C[C@@H]4C[C@H](O)CC[C@]4(C)[C@H]3CC[C@]12C [CDCA, Chenodeoxycholic acid] | slight, thought significant, inhibitory effect; also recorded: weak LIFR antagonists | 48 µM | 
2 | C[C@H](CCC(=O)O)[C@H]1CC[C@H]2[C@@H]3CC[C@@H]4C[C@H](O)CC[C@]4(C)[C@H]3CC[C@]12C [LCA, Lithocholic acid] | slight, thought significant, inhibitory effect; also recorded: weak LIFR antagonists | 48.3 µM | 
3 | Leukemia Inhibitory factor [LIF] |  |  | ≈ 16%
